Laboratory results taken from patent publication US10513511B2, “Aqueous suspension formulation comprising 4-(4-(4-(((3R,5R)-5-((1H-1,2,4-triazol-1-yl)methyl)-5-(2,4-difluoro-phenyl)tetrahydrofuran-3-yl)methoxy)-3-methylphenyl) or a pharmaceutically acceptable salt thereof” (PULMOCIDE LIMITED, priority 2015, dated 2019).

Assays:
[1] = test system: Aspergillus fumigatus (azole resistant strain: TR34/L98H); assay: Aspergillus fumigatus infection of human alveoli bilayers (transwells), azole resistant strain; format: cell-based; conditions: for MIC50 / MIC90: Aspergillus fumigatus, 24 h; for MIC50: read-out: MIC50, invasion into the lower chamber in human alveoli bilayers; for MIC90: read-out: MIC90, invasion into the lower chamber in human alveoli bilayers
Experimental: (§1) In vitro models of human alveoli, consisting of a bilayer of human alveolar epithelial cells and endothelial cells, were prepared as previously described (Hope et al., 2007). This system allows administration of a test compound to the upper (“air” space) and/or lower (“systemic” space) compartments. This flexibility has been exploited to explore the effects of combination treatment by dosing Compound (I) to the upper chamber and posaconazole or other anti-fungal agents to the lower chamber. Primary human pulmonary artery endothelial cells (HPAEC) were harvested and diluted to 10^6 cells/mL in EGM-2 media (Lonza, Basel, Switzerland). Transwells were inverted and the cell suspension (100 μL/well) applied to the base of each transwell. The inverted transwells were incubated at RT within a flow hood for 2 hr after which they were turned upright. EGM-2 media was added to the lower (700 μL/well) and upper (100 μL/well) compartments and the transwells were incubated for 48 hr (37° C., 5% CO2). The EGM-2 media in the lower compartment was then replaced with fresh EGM-2 media. A549 cells were harvested and diluted to 5×10^5 cells/mL in 10% EBM, then added to the upper compartment (100 μL/well) of all transwells and the plates incubated for 72 hr (37° C., 5% CO2). Conidia of itraconazole sensitive Aspergillus fumigatus s (NCPF2010) and itraconazole resistant (TR34-L98H) strains were cultured separately in Sabouraud dextrose agar for 3 days. A stock conidia suspension of either strain was prepared from a Sabouraud dextrose agar culture by washing with PBS-tween (10 mL; PBS containing 0.05% Tween-20, 100 U/mL Penicillin and 100 U/mL Streptomycin). The conidia count was assessed using a Neubauer haemocytometer and adjusted to 10^6 conidia/mL with PBS. A working stock of conidia was prepared in EBM (10^5 conidia/mL) immediately prior to use.
(§2) Test and reference compounds (or neat DMSO as the vehicle) were added to the appropriate wells of 24-well plates (3 μL/well containing 600 μL of 2% FBS EBM) for lower compartment treatment and to 96-well plates (1 μL/well containing 200 μL of 2% FBS EBM) for the treatment of the upper compartment, to provide a final DMSO concentration of 0.5%. The media in the upper compartment was aspirated and that containing the appropriate test and reference compounds, or vehicle, were added (100 μL/well). Transwells were then transferred into the 24-well plate containing the test and reference compounds or DMSO vehicle. After incubation for 1 hr (35° C., 5% CO2) the conidia suspension (10 μL/well) was added to the upper compartment of each transwell. Plates were then incubated for 24 hr (35° C., 5% CO2). Supernatants from each compartment (5 μL/compartment) were collected and stored (−20° C.). Media was replaced daily after collection of the supernatants and all wells were treated with test and reference compounds or with DMSO, as described above, for 3 days. Samples continued to be collected until fungal growth was visible by eye in all transwells. The levels of GM in the supernatant in lower compartment were then measured by ELISA (BioRad, CA, USA) as an index of Aspergillus fumigatus invasion.

[2] = test system: Aspergillus fumigatus (azole susceptible strain: NCPF2010); assay: Aspergillus fumigatus infection of human alveoli bilayers (transwells), azole susceptible strain; format: cell-based; conditions: for MIC50 / MIC90: Aspergillus fumigatus, NCPF2010, 24 h; for MIC50: read-out: MIC50, invasion into the lower chamber in human alveoli bilayers; for MIC90: read-out: MIC90, invasion into the lower chamber in human alveoli bilayers; for GM Levels in the Lower Chamber, OD value / GM Levels in the Lower Chamber, % inhibition vs.control / DFB50: Days taken to reach a fungal burden of 50% of control: Compound (Ia) 0.1 μg/mL upper chamber, posaconazole 0.01 μg/mL lower chamber, combination of both
Experimental: as §1, §2

[3] = Day 1, TR34-L98H, Compound 0.3 μg/mL upper chamber, posaconazole 0.1 μg/mL lower chamber, combination of both
[4] = Day 2, TR34-L98H, Compound 0.3 μg/mL upper chamber, posaconazole 0.1 μg/mL lower chamber, combination of both
[5] = Day 3, TR34-L98H, Compound 0.3 μg/mL upper chamber, posaconazole 0.1 μg/mL lower chamber, combination of both

Structure (SMILES)	MIC50 [1] [µM]	MIC90 [1] [µM]	MIC50 [2] [µM]	MIC90 [2] [µM]	GM Levels in the Lower Chamber, OD value ([2]; Day 0, NCPF2010) [OD]	GM Levels in the Lower Chamber, % inhibition vs.control ([2]; Day 1, NCPF2010) [%]	GM Levels in the Lower Chamber, OD value ([2]; Day 1, NCPF2010) [OD]	GM Levels in the Lower Chamber, % inhibition vs.control ([2]; Day 2, NCPF2010) [%]	GM Levels in the Lower Chamber, OD value ([2]; Day 2, NCPF2010) [OD]	GM Levels in the Lower Chamber, % inhibition vs.control ([2]; Day 3, NCPF2010) [%]	GM Levels in the Lower Chamber, OD value ([2]; Day 3, NCPF2010) [OD]	GM Levels in the Lower Chamber, % inhibition vs.control ([2]; Day 4, NCPF2010) [%]	GM Levels in the Lower Chamber, OD value ([2]; Day 4, NCPF2010) [OD]	GM Levels in the Lower Chamber, % inhibition vs.control ([2]; Day 5, NCPF2010) [%]	GM Levels in the Lower Chamber, OD value ([2]; Day 5, NCPF2010) [OD]	GM Levels in the Lower Chamber, % inhibition vs.control ([2]; Day 6, NCPF2010) [%]	GM Levels in the Lower Chamber, OD value ([2]; Day 6, NCPF2010) [OD]	GM Levels in the Lower Chamber, % inhibition vs.control ([2]; Day 7, NCPF2010) [%]	GM Levels in the Lower Chamber, OD value ([2]; Day 7, NCPF2010) [OD]	DFB50: Days taken to reach a fungal burden of 50% of control ([2]; NCPF2010) [days]	other results
Cc1cc(N2CCN(c3ccc(C(=O)N[C@H]4CCCC[C@@H]4O)cc3)CC2)ccc1OC[C@@H]1CO[C@@](Cn2cncn2)(c2ccc(F)cc2F)C1 [Compound (Ia), 4-(4-(4-(((3R,5R)-5-((1H-1,2,4-triazol-1-yl)methyl)-5-(2,4-difluorophenyl)tetrahydrofuran-3-yl)methoxy)-3-methylphenyl)piperazin-1-yl)-N-((1S,2S)-2-hydroxycyclohexyl) benzamide]	0.261	0.417	0.154	0.185	0	66	0.24	1.5	1.71	8.6	1.67	−1.6	1.68	0.2	1.63	−1.8	1.57	7.1	1.54	1.04	maximum inhibition of GM levels in the bottom chamber ([1]; TR34/L98H, administration to the apical chamber, 1 day post infection): exceeding 90%; maximum inhibition of GM levels in the bottom chamber ([2]; NCPF2010, administration to the apical chamber, 1 day post infection): exceeding 90%
CC[C@@H]([C@H](C)O)n1ncn(-c2ccc(N3CCN(c4ccc(OC[C@@H]5CO[C@@](Cn6cncn6)(c6ccc(F)cc6F)C5)cc4)CC3)cc2)c1=O [Posaconazole, reference compound]	0.315	0.793	0.155	0.212	0	89	0.074	1.5	1.71	7.1	1.70	−3.0	1.70	−3.6	1.69	−3.0	1.59	2.5	1.62	1.16	GM Levels in the Lower Chamber, OD value ([1]; Day 0, TR34-L98H, Compound 0.3 μg/mL upper chamber, posaconazole 0.1 μg/mL lower chamber, combination of both): 0 OD; GM Levels in the Lower Chamber, % inhibition vs. vehicle control [1, 3]: 98%; GM Levels in the Lower Chamber, OD value [1, 3]: 0.016 OD; GM Levels in the Lower Chamber, % inhibition vs. vehicle control [1, 4]: 35%; GM Levels in the Lower Chamber, OD value [1, 4]: 0.73 OD; GM Levels in the Lower Chamber, % inhibition vs. vehicle control [1, 5]: −10%; GM Levels in the Lower Chamber, OD value [1, 5]: 1.16 OD; DFB50: Days taken to reach a fungal burden of 50% of control ([1]; TR34-L98H, Compound 0.3 μg/mL upper chamber, posaconazole 0.1 μg/mL lower chamber, combination of both): 1.94 days
